Common to all, as to type: cell-based
The target of experiment [1] is T1, human TLR7 (Homo sapiens, UniProt Q9NYK1).
T1 construct: host or cells: HEK-Blue cells (HEK293-derived reporter line)
T1 sequence (Q9NYK1 27-1049): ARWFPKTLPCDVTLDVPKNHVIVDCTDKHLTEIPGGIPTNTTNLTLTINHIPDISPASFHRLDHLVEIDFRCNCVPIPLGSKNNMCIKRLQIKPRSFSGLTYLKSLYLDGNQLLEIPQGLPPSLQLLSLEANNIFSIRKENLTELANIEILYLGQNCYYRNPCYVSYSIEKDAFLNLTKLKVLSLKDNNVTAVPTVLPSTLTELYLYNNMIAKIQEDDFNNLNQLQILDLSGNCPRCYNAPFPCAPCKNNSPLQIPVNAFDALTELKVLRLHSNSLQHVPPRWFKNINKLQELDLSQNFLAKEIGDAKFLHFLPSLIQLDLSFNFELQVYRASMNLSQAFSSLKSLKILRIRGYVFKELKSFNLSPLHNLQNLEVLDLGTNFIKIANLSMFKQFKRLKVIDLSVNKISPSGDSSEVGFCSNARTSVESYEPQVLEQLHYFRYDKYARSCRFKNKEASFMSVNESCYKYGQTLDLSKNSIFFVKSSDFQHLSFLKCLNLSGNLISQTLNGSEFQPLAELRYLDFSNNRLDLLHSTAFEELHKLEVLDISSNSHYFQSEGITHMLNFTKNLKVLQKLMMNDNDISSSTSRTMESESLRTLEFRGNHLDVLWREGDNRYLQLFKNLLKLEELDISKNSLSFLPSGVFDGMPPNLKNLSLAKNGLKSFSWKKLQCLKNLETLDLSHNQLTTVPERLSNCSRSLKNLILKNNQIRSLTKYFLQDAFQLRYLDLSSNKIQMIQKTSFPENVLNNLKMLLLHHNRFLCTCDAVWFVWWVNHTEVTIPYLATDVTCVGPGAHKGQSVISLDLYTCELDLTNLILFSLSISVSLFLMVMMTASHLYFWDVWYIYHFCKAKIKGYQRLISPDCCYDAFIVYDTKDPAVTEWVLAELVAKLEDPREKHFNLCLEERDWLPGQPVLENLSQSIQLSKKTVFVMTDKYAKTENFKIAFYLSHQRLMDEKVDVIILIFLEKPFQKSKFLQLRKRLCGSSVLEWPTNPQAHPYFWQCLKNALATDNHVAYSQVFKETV
The experiment in a line: TLR7 inhibition reporter assay (HEK-Blue cells, SEAP reporter, gardiquimod stimulation). Conditions: HEK-Blue cells overexpressing human TLR7, SEAP reporter, gardiquimod 7.5 μM. Here is the method: (§1) TLR7/8/9 Inhibition Reporter Assays
(§2) HEK-Blue™-cells (Invivogen) overexpressing human TLR7, TLR8 or TLR9 receptors were used for screening inhibitors of these receptors using an inducible SEAP (secreted embryonic alkaline phosphatase) reporter gene under the control of the IFN-β minimal promoter fused to five NF-κB and AP-1-binding sites. Briefly, cells are seeded into Greiner 384 well plates (15000 cells per well for TLR7, 20,000 for TLR8 and 25,000 for TLR9) and then treated with test compounds in DMSO to yield a final dose response concentration range of 0.05 nM-50 μM. After a 30 minute compound pre-treatment at room temperature, the cells are then stimulated with a TLR7 ligand (gardiquimod at a final concentration of 7.5 μM), TLR8 ligand (R848 at a final concentration of 15.9 μM) or TLR9 ligand (ODN2006 at a final concentration of 5 nM) to activate NF-κB and AP-1 which induce the production of SLAP After a 22 hour incubation at […], SLAP levels are determined with the addition of HLK-Blue™ Detection reagent (Invivogen), a cell culture medium that allows for detection of SLAP, according to manufacturer's specifications. The percent inhibition is determined as the […] in the HEK-Blue signal present in wells treated with agonist plus DMSO alone compared to wells treated with a known inhibitor.
(In general: Reporter assays use an easily measured gene product as a stand-in for the process of interest.)

Experiment [2] has as its target T2, human TLR9 (Homo sapiens, UniProt Q9NR96).
T2 construct: host or cells: HEK-Blue cells (HEK293-derived reporter line)
T2 sequence (Q9NR96 26-1032): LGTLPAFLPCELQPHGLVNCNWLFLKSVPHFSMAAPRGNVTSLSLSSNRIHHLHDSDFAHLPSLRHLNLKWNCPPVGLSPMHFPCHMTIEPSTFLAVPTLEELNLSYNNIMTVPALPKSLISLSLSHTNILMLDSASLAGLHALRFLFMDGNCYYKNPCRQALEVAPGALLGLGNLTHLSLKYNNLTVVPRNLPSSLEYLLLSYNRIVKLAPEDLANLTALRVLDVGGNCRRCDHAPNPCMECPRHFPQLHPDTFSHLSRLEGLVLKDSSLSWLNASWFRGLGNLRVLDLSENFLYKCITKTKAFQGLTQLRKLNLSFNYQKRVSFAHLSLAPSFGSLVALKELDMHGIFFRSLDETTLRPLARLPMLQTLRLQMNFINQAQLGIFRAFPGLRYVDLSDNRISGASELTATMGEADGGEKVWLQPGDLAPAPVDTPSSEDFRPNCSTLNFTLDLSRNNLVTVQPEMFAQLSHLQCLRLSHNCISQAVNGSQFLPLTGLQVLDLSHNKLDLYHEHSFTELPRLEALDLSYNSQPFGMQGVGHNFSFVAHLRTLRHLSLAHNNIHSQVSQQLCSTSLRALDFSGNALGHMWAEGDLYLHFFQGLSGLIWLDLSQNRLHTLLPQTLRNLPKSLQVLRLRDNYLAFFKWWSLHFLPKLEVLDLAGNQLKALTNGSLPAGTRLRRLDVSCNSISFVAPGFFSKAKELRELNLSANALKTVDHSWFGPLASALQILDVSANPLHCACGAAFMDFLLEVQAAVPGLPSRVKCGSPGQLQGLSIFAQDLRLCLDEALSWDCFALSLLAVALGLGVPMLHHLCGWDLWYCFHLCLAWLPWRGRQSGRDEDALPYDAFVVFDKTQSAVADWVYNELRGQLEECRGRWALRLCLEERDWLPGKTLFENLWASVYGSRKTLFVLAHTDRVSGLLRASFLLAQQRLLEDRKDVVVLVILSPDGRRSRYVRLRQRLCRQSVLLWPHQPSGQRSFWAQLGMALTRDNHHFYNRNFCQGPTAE
As to the kind of experiment: TLR9 inhibition reporter assay (HEK-Blue cells, SEAP reporter, ODN2006 stimulation). Conditions: HEK-Blue cells overexpressing human TLR9, SEAP reporter, ODN2006 5 nM. Here is the method:
as §1, §2

Experiment [3] concerns the target T3, human TLR8 (Homo sapiens, UniProt Q9NR97).
T3 construct: host or cells: HEK-Blue cells (HEK293-derived reporter line)
T3 sequence (Q9NR97 27-1041): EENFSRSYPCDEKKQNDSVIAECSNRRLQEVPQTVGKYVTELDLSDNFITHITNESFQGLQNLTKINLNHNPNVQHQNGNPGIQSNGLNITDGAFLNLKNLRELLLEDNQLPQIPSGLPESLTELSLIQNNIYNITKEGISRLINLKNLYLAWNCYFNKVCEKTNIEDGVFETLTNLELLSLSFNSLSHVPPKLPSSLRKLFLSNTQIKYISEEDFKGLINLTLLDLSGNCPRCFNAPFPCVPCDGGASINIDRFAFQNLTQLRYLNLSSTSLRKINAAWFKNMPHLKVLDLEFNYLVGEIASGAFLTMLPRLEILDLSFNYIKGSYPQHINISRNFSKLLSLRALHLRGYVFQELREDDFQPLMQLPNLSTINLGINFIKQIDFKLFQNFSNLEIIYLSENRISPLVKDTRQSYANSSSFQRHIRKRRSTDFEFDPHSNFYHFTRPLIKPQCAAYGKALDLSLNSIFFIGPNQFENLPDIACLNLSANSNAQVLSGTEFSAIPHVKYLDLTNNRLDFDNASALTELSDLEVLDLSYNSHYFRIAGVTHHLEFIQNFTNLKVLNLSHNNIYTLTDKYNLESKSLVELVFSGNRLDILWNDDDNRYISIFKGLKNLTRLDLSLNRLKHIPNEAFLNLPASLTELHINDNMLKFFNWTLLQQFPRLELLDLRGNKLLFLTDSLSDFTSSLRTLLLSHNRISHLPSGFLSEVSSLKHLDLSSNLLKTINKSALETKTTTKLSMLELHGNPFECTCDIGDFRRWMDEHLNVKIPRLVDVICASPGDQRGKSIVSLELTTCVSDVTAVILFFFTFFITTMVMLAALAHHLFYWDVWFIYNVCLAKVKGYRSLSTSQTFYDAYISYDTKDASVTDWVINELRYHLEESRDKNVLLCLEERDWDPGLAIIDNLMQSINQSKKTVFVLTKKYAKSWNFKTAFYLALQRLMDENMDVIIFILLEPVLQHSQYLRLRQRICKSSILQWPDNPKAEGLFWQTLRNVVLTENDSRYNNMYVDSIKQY
The experiment in a line: TLR8 inhibition reporter assay (HEK-Blue cells, SEAP reporter, R848 stimulation). Conditions: HEK-Blue cells overexpressing human TLR8, SEAP reporter, R848 15.9 μM. Here is the method:
as §1, §2

Molecules are shown by their SMILES.

Take `CNCC(=O)N1CCC(c2ccc3[nH]c(-c4ccc5nc(C)cn5c4)c(CC(F)F)c3c2)CC1` [Example 550, 1-(4-(3-(2,2-difluoroethyl)-2-(2-methylimidazo[1,2-a]pyridin-6-yl)-1H-indol-5-yl)piperidin-1-yl)-2-(methylamino)ethan-1-one]: the IC50 is under 100 nM in experiment [1] and 100 to 1000 nM in experiment [2].
For `COc1cc(-c2[nH]c3ccc(C4CCN(CCS(C)(=O)=O)CC4)cc3c2C(C)C)cn2ccnc12` [Example 801, 6-(3-isopropyl-5-(1-(2-(methylsulfonyl)ethyl)piperidin-4-yl)-1H-indol-2-yl)-8-methoxyimidazo[1,2-a]pyridine], the results for the half-maximal inhibitory concentration (IC50) in experiment [2] and in experiment [3] were 1000 to 50000 nM and under 100 nM, respectively.
In the case of `Cc1c(-c2ccnc3[nH]nnc23)[nH]c2ccc(C3CCNCC3)cc12` [Example 233, 7-(3-methyl-5-(piperidin-4-yl)-1H-indol-2-yl)-3H-[1,2,3] triazolo[4,5-b]pyridine], the half-maximal inhibitory concentration (IC50) in experiment [1] and in experiment [3] was 1000 to 50000 nM each time.
For `COC(=O)C1CC(N2CCC(c3ccc4[nH]c(-c5ccnc6[nH]ncc56)c(C(C)C)c4c3)CC2)CCN1` (stereo not shown) [Example 825, methyl 4-(3-isopropyl-2-(1H-pyrazolo[3,4-b]pyridin-4-yl)-1H-indol-5-yl)-[1,4′-bipiperidine]-2′-carboxylate], the IC50 in experiment [2] is 100 to 1000 nM; in experiment [3], under 100 nM.
On to `Cc1cc(-c2[nH]c3ccc(C4CCN(C(=O)C[C@H](C)O)CC4)cc3c2C(C)C)cn2nnnc12` [Example 593, (S)-3-hydroxy-1-(4-(3-isopropyl-2-(8-methyltetrazolo[1,5-a]pyridin-6-yl)-1H-indol-5-yl)piperidin-1-yl)butan-1-one], for which the IC50 in experiment [1] and in experiment [3] was under 100 nM each time.
For the compound `Cc1c(-c2ncnc3c2cnn3C)[nH]c2ccc(C3CCN(C4CCN(C(C)C)CC4)CC3)cc12` [Example 818, 4-(5-(1′-isopropyl-[1,4′-bipiperidin]-4-yl)-3-methyl-1H-indol-2-yl)-1-methyl-1H-pyrazolo[3,4-d]pyrimidine], the IC50 is 100 to 1000 nM in experiment [2] and over 3130 nM in experiment [3].
In the case of `CC(C)c1c(-c2ccnc3[nH]ncc23)[nH]c2ccc(C3CCN(Cc4ccncc4Cl)CC3)cc12` [Example 923, 4-(5-(1-((3-chloropyridin-4-yl)methyl)piperidin-4-yl)-3-isopropyl-1H-indol-2-yl)-1H-pyrazolo[3,4-b]pyridine], the IC50 in experiment [1] and in experiment [3] was 100 to 1000 nM each time.
In the case of `CCc1c(-c2cccc3c2cnn3C)[nH]c2ccc(C3CCN(C(=O)CN4CCCN(C)CC4)CC3)cc12` [Example 521, 1-(4-(3-ethyl-2-(1-methyl-1H-indazol-4-yl)-1H-indol-5-yl)piperidin-1-yl)-2-(4-methyl-1,4-diazepan-1-yl)ethan-1-one], the IC50 was 1000 to 50000 nM in experiment [2] and over 50000 nM in experiment [3].
On to `Cc1c(-c2[nH]c3ccc(C4CCNCC4)cc3c2C(C)C)ccc2nccn12` [Example 111, 6-(3-isopropyl-5-(piperidin-4-yl)-1H-indol-2-yl)-5-methylimidazo[1,2-a]pyridine], for which the IC50 in experiment [1] is under 100 nM; in experiment [3] it was 100 to 1000 nM.
Consider `COc1cc(-c2[nH]c3ccc(C4CCNCC4)cc3c2C(C)C)cn2cc(C(=O)N(C)C)nc12` [Example 263, 6-(3-isopropyl-5-(piperidin-4-yl)-1H-indol-2-yl)-8-methoxy-N,N-dimethylimidazo[1,2-a]pyridine-2-carboxamide], for which the IC50 in experiment [2] is 1000 to 50000 nM; in experiment [3], under 100 nM.
The corresponding values for `CNCCN1CCC(c2ccc3[nH]c(-c4cnc5ccccc5c4)c(C)c3c2)CC1` [Example 664, N-methyl-2-(4-(3-methyl-2-(quinolin-3-yl)-1H-indol-5-yl)piperidin-1-yl)ethan-1-amine] are 100 to 1000 nM and over 3130 nM.

One may read the IC50 as the point on the concentration scale where inhibition reaches its midpoint. A low value points to greater potency.
